Measurements: a melting point compilation (Tetko et al.; mined from patent text by program, amines drawn as free bases though some values may be those of a salt)

First: CNN(NC)C(=O)Nc1cccc2c1C(=O)c1c-2n[nH]c1-c1ccc(C)s1
Second: CC(=O)Nc1ccc(Cc2cc(C)c(C(=O)c3ccc(Cl)cc3)n2C)nc1
The melting point of the first is higher: > 280 °C for the first, 194 to 195 °C for the second.

Compared with CC(C)(C1CCCCC1)C(NC(=O)c1ccc(Cl)cc1)NC(=N[N+](=O)[O-])Nc1cccnc1 (configuration not stated), COCCNC(=O)c1ccc(C(=O)N2CCN(c3ncccc3NC(C)C)CC2)cc1 is lower in melting point: 201 to 203 °C for the first, 120 to 121 °C for the second.

First: CCCCCOc1cc(C=CC(=O)O)ccc1OC
Second: COC(=O)CCC(=O)c1ccc(CCCCNC(C)=O)cc1
The melting point of the first is higher: 150 °C for the first, 94 to 95 °C for the second.

Compared with CSc1c[nH]c2ccc(C)cc12, Cc1ccc(-n2nc(C)c(CC(=O)O)c2C)cc1 is lower in melting point: 136 to 137 °C for the first, 119 to 121 °C for the second.

First: N#CCOc1c(-c2ccccc2)c(=O)[nH]c2cc(Cl)ccc12
Second: NS(=O)(=O)Cc1ccc2oc([N+](=O)[O-])c(-c3ccccc3)c2c1
The melting point of the first is higher: 209 to 211 °C for the first, 203 to 205 °C for the second.

First: CC(C)(C)Oc1ccc(C(N)=O)cc1
Second: COc1ccc(-c2ccc(C(=O)CCC(=O)O)cc2)cc1
The melting point of the first is lower: 135 to 136 °C for the first, 197 to 199 °C for the second.

First: CCn1cc(Br)nc(N)c1=O
Second: Cc1sc(C=O)cc1Br
The melting point of the first is higher: 227 to 230 °C for the first, 58 °C for the second.

CC(C)CC1(C(CCN2C(=O)c3cccc([N+](=O)[O-])c3C2=O)C(=O)NO)CCN(CCc2ccccc2)C1=O (configuration not stated) and CNC(=O)c1cc(C(=O)c2ccccc2)ccc1[N+](=O)[O-] cannot be ordered by melting point: 136 to 138 °C for the first, 138 °C for the second.

CC[C@H](NC(=O)OC(C)(C)C)c1nc2c(C(F)(F)F)cccc2c(=O)o1 and CC(C)(C)OC(=O)NCc1cccc(Cn2ccc(OCc3ccc(F)cc3)c(Br)c2=O)c1 fall in the same range of melting point: 136 to 138 °C for the first, 136 to 138 °C for the second.

Compared with CN1CCCC1CCNc1nccc(Oc2ccc(NC(=O)c3cc(F)cc(N4CCCCC4)c3)c3ccccc23)n1 (configuration not stated), Cc1cc(-c2nc3cccnn3c2-c2ccnc(NC(=O)NC3CC3)c2)ccc1F is higher in melting point: 112 to 114 °C for the first, 222 to 223 °C for the second.

First: O=S(=O)(NCCCCOc1ccc(-n2cnnn2)cc1)c1ccc(Br)cc1
Second: CCCCOCCOc1ccc(-c2ccc3c(c2)C=C(C(=O)Nc2ccc(S(=O)Cc4nncn4CCC)nc2)CCN3CC(C)C)cc1 (configuration not stated)
The melting point of the first is lower: 109 to 110 °C for the first, 135 to 138 °C for the second.

Compared with COC(=O)CCc1ccc(N2C(=O)CN(c3ccc(C(=N)NC(=O)OC)cc3)C2=O)cc1, CCOC(=O)N1CCN(c2ccc(C(=O)CCc3ccc(N)cc3)cc2)CC1 is lower in melting point: 250 °C for the first, 106 to 107 °C for the second.

First: CCC(=O)N(C(=O)CC)c1cc(-c2c(-c3cccc(C)c3)nc3cccnn23)ccn1
Second: CN(C(=O)C1CCC1)c1cccc(-c2ccnc3c(C(=O)c4ccco4)cnn23)c1
The melting point of the first is higher: 210 to 211 °C for the first, 166 to 167 °C for the second.

First: CC1(C)C=C(c2ccc3ccccc3n2)c2cc(C#N)ccc2O1
Second: Cc1cc(-c2ccccc2)c2ccccc2n1
The melting point of the first is higher: 102 to 104 °C for the first, 100 to 101 °C for the second.

First: O=Cc1cc(-c2ncco2)ccc1Br
Second: Oc1cccc(C2CN=C(c3ccccn3)O2)c1 (configuration not stated)
The melting point of the first is lower: 100 to 104 °C for the first, 139 to 141 °C for the second.

Compared with CCC1(CC(=O)O)OCCc2c1[nH]c1ccc(OCc3ccccc3)cc21 (configuration not stated), CCOC(=O)c1c(CCl)nc2sc3c(c2c1-c1ccc(OC)c(OC)c1)CN(C(=O)OCc1ccccc1)CC3 is lower in melting point: 163 to 165 °C for the first, 125 to 126 °C for the second.

First: CC(C)(CO)n1cnc2c(N)nc3ccccc3c21
Second: CCCc1nc2c(N)nc3ccccc3c2n1CCc1cc(-c2ccc(F)cc2)no1
The melting point of the first is higher: 277 to 281 °C for the first, 208 to 209 °C for the second.

Compared with Cc1cc(OCCCCl)c(C)c(C)c1OCCCCl, COc1ccc(CCc2cc(OC)c(OC)cc2C)cc1OC is lower in melting point: 143 °C for the first, 102 °C for the second.

First: OC(c1ccc(Br)cc1)(c1ccc(Br)cc1)c1ncc[nH]1
Second: CN(C(=O)c1cccc(S(=O)(=O)N(C)c2ccc(Br)cc2)c1)c1ccc(Cl)cc1F
The melting point of the first is higher: 192 to 194 °C for the first, 127 to 128 °C for the second.

First: CN(C)c1cccc2c(S(=O)(=O)Nc3ccc(Cl)nc3)cccc12
Second: O=C(Nc1ccc(F)cc1)c1nnc2ccccc2c1O
The melting point of the first is lower: 145 to 146 °C for the first, 280 to 284 °C for the second.

Compared with COc1ccc(C2=C(C=O)c3ccc(OC)cc3CC2)cc1, COc1ccc(C(C)CN2C=CC=C3C2=Nc2cc(OC)ccc2S(=O)(=O)N3C)cc1 (configuration not stated) is lower in melting point: 142 °C for the first, 128 to 131 °C for the second.

First: Cc1sc(N)c(C(=O)c2cccc(C(F)(F)F)c2)c1C
Second: CC(Oc1cccc(Oc2c(Cl)cc(C(F)(F)F)cc2Cl)c1)(C(=O)O)[N+](=O)[O-] (configuration not stated)
The melting point of the first is lower: 103 to 105 °C for the first, 146 °C for the second.

First: Clc1ccc(-c2cccs2)nn1
Second: COc1cccc(-c2cc3[nH]nc(I)c3s2)c1
The melting point of the first is lower: 155 °C for the first, 159 to 163 °C for the second.

First: CCOC(=O)c1cn2c3c(cc(I)cc3c1=O)N(C)C(=O)C2
Second: CCOC(=O)c1cc2cc(-c3ccc(N)cc3)ccc2o1
The melting point of the first is higher: 278 to 283 °C for the first, 95 to 97 °C for the second.

Compared with C[C@H](CSC(=O)c1ccc(Cl)c(S(N)(=O)=O)c1)C(=O)O, NS(=O)(=O)c1ccc(F)c(C(O)CCl)c1 (configuration not stated) is lower in melting point: 152 to 153 °C for the first, 112 °C for the second.

First: Cc1ccc(NC(=O)N2C(=O)C3(CCCCC3)NC23CCCCC3)cc1
Second: CC1CCC(=NNc2ccccc2)c2ncc(C(N)=O)c(=O)n21 (configuration not stated)
The melting point of the first is lower: 136 to 138 °C for the first, 246 to 247 °C for the second.

First: O=c1c(-c2cccc(C(F)(F)F)c2)c[nH]n1-c1cccc(C(F)(F)F)c1
Second: CC(C)c1ccc(-n2nc(C(F)(F)F)cc2-c2ccc(S(C)(=O)=O)cc2)cc1Cl
The melting point of the first is higher: 207 to 208 °C for the first, 84 to 86 °C for the second.

First: CC(=O)CN1CCc2c(c(=O)oc3ccccc23)C1
Second: CCC(=O)NC1CCc2ccccc2C1 (configuration not stated)
The melting point of the first is higher: 128 to 130 °C for the first, 99 to 101 °C for the second.

First: CC(N)Cc1cccc(N)c1 (configuration not stated)
Second: C#CCOc1cc(-c2ccccc2)ncn1
The melting point of the first is higher: 78 to 79 °C for the first, 65.1 °C for the second.

First: N#CCCN(CCC#N)CCC#N
Second: CCSc1nc(C#N)c(C#N)nc1C
The melting point of the first is lower: 59 to 61 °C for the first, 91.5 to 92.5 °C for the second.

First: NC(=O)CCn1c2ccc(O)cc2c2c3c(c(-c4ccccc4Cl)cc21)C(=O)NC3=O
Second: O=C(c1ccccc1)c1ccc(O)c(Cl)c1Cl
The melting point of the first is higher: 319 to 322 °C for the first, 123 to 126 °C for the second.

First: N#CCn1nnc(N)n1
Second: CCc1cc(C(N)=O)nn1C
The melting point of the first is lower: 105 to 106 °C for the first, 170 to 172 °C for the second.

First: CCNC(=O)NCC1=C(n2ccccc2=O)c2cc([N+](=O)[O-])ccc2OC1(C)C
Second: CCN(CC)CCNC(=O)Cn1ncc(-c2ccccc2)c1-c1ccccc1
The melting point of the first is higher: 197 °C for the first, 67 to 69 °C for the second.

First: CN(c1ncccc1C#N)C1CCN(Cc2ccccc2)CC1
Second: Nc1cccc(-c2ccc(CCN3CCN(C(=O)c4ccccc4)CC3)cc2)n1
The melting point of the first is lower: 58 to 60 °C for the first, 125 to 127 °C for the second.

First: CN(c1ccncc1)N1CCc2cc(O)ccc2C1
Second: CN1CCC(c2nc(-c3ccncc3)c(-c3ccc(F)cc3)[nH]2)CC1
The melting point of the first is higher: 263 to 266 °C for the first, 259 to 261 °C for the second.

First: CC(O)C#Cc1ncn2c1CN(C)C(=O)c1c(Cl)cccc1-2 (configuration not stated)
Second: CC(C)CN(CC(O)(Cn1cncn1)c1ccc(Cl)cc1Cl)S(C)(=O)=O (configuration not stated)
The melting point of the first is higher: 251 to 252 °C for the first, 128 to 129 °C for the second.

First: COc1c(C(=O)Nc2ccc(OCC(C)(C)C)c(C#N)c2)cnn1-c1ccc(F)cc1
Second: COC(=O)c1cc(NC(=O)C(F)(F)F)c2cc(Cc3ccc(F)cc3)cnc2c1O
The melting point of the first is lower: 120 to 123 °C for the first, 191 to 192 °C for the second.

First: N#Cc1cnc2c(oc3ccccc32)c1Nc1cccc(Br)c1
Second: O=C(C=Cc1ccccc1)NNC(=O)c1ccc(O)cc1
The melting point of the first is lower: 242 to 245 °C for the first, 263 to 264 °C for the second.

Compared with CC(=O)SCC(Cc1ccccc1)C(=O)NC1(C(=O)O)CC1 (configuration not stated), O=C(NC(CCC(=O)N1CCCC1C(=O)O)C(=O)O)c1ccccc1 (configuration not stated) is lower in melting point: 169 to 171 °C for the first, 102 to 104 °C for the second.

First: CC(C)(C)OC(=O)N[C@@H](Cc1ccccc1)C(=O)N[C@@H](Cc1ccc(O)c(I)c1)C(=O)OCc1ccccc1
Second: CCOC(=O)C1=C(CC)NC(CC)=C(C(=O)OCC)C1c1ccccc1/C=C/C(=O)OC(C)(C)C
The melting point of the first is lower: 81.6 to 82.7 °C for the first, 154 to 155 °C for the second.

Compared with COC(=O)c1ccc(CNC(=O)C2Cc3ccccc3N2S(=O)(=O)c2ccc(-c3ccc(F)cc3)cc2)cc1 (configuration not stated), O=C(Nc1ccc(C2=CCN(C(=O)Nc3ccc(OCCO)cc3Cl)CC2)cc1)Nc1ccccc1F is higher in melting point: 66 to 73 °C for the first, 173 to 178 °C for the second.

First: O=C(NCc1ccc(Cl)cc1)c1nnc2ccc(CO)cc2c1O
Second: CC(=NOCc1ccc2nonc2c1)c1ccc(O)c(F)c1
The melting point of the first is higher: 296 to 298 °C for the first, 125 to 126 °C for the second.

Compared with O=C(Nc1ccc(F)c(C(F)(F)F)c1)N1COc2cc(O)ccc21, O=C(Nc1ccccc1-c1nnn[nH]1)C(=O)N1CCC(Cc2ccc(F)cc2)CC1 is lower in melting point: 171 to 172 °C for the first, 107 to 109 °C for the second.

First: CCCCCS(=O)(=O)NC(=O)CCc1cc(OC(C)C)nn1Cc1ccc(C(F)(F)F)cc1Cl
Second: CS(=O)(=O)Nc1ccc(Cn2ncc(Cl)c(Cl)c2=O)cc1
The melting point of the first is lower: 147 to 149 °C for the first, 152 to 154 °C for the second.

First: CC(=O)SCC(CC(C)C)C(=O)NC(C)C(=O)O (configuration not stated)
Second: CC(=O)Nc1ccc(/C=C/C(=O)NCC(=O)N(C)c2ccc(Cl)c(CBr)c2Cl)cn1
The melting point of the first is lower: 157 to 167 °C for the first, 222 to 223 °C for the second.

Compared with Cc1cc(C(=O)N2Cc3ccc(C(=O)N4CCN(C)CC4)n3Cc3ccccc32)ccc1C1=CCCc2ccccc21, O=[N+]([O-])c1ccc(N2CCN(c3ccncc3)CC2)cc1 is higher in melting point: 108 °C for the first, 213 to 216 °C for the second.

First: Cn1nc(-c2cnc3[nH]cc(C(=O)NC4CCS(=O)(=O)C4)c3n2)c2ccc(Cl)cc21 (configuration not stated)
Second: CN1CCN(C2=Nc3cc(Cl)c(Cl)cc3Nc3nn(C)nc32)CC1
The melting point of the first is higher: 383 to 385 °C for the first, 218 °C for the second.

First: CCCc1c(OCCCCCCc2cccc(OCCCCCO)c2CCC(=O)O)ccc2c1OCCC2=O
Second: Brc1ccc2c3c(cccc13)C(NCCCCCCCCCCCCn1ccnc1)=N2
The melting point of the first is lower: 102 to 103 °C for the first, 111 to 116 °C for the second.

Compared with CC(=O)c1cc(S(=O)(=O)N(C)C)c(Cl)cc1Cl, COc1cc2c(c(N)c1OC)C(=O)C(=Cc1cc(C)c(O)c(C)c1)C2 is higher in melting point: 98 to 100 °C for the first, 238 to 240 °C for the second.

First: NC(c1ccncc1)C1CCN(C2CCC(O)(CC(=O)O)CC2)CC1 (configuration not stated)
Second: CC(C)(C)OC(=O)N1CCC[C@H](O)[C@@H]1c1ccccc1
The melting point of the first is higher: 266 °C for the first, 66 to 67 °C for the second.

Compared with O=c1[nH]c2sc(Br)c(Br)c2[nH]c1=O, CCCCCCCCCCCCCCCCSCC(CNS(=O)(=O)CCCCl)NC(=O)NC (configuration not stated) is lower in melting point: > 300 °C for the first, 79 to 80 °C for the second.
